Assay [1] relates to CEM-C1. Description: Proliferation (3H-thymidine) of CEM-C1. Conditions: 3H-thymidine uptake, 72 h. The format is cell-based, human. The text has this:
(§1) CCRF-CEM, CEM/C1, CEM/C2, CEM-C7, Jurkat, Loucy, Molt-4, HSB-2, SUP-T1, Hut 78, HH, Hut 102, MO, and H9 T-leukemia and T-lymphoma cell lines were purchased from the American Type Culture Collection (Manassas, Va., USA). All of the cell lines were initially expanded and cryopreserved within one month of receipt. Cells were typically used for 6 months at which time a fresh vial of cryopreserved cells was used. Total T cells from healthy donors were isolated via negative selection followed by positive selection using a CD3+ selection kit (Invitrogen, Carlsbad, Calif.). T cells were isolated from patients with T-ALL bone marrow or peripheral blood samples containing more than 70% leukemia cells using a CD2+ isolation kit (STEMCELL Technologies, Vancouver, Canada). All tissues were collected under institutional IRB-approved protocols and all participants gave written informed assent/consent. For in vitro experiments, T-ALL cells were cultured in AIM-V medium supplemented with 20% human AB serum in the presence of recombinant human stem cell factor (50 ng/mL; Amgen, Thousand Oaks, Calif.), insulin (20 nM; Sigma-Aldrich, St Louis, Mo., USA) and IL-7 (50 ng/mL; R&D Systems, Minneapolis, Minn., USA). In other experiments, protein lysate was collected using the Full Moon Biosystems (Sunnyvale, Calif., USA) buffer prior to protein examination by western blot or protein array.
(§2) Cells were cultured in a 96-well plate (Corning Costar, Corning, N.Y., USA) with various concentrations of TLR ligands 1-9, starting at 10 μg/ml, in a final volume of 200 ul. TLR ligands were diluted 2-fold. Cell lines (25-40×10^3/well) were cultured for 54 hours, whereas fresh patient-derived T-ALL cells (200×10^3/well) were cultured for 30 hours prior to adding [^3H]-thymidine for 18 hours. After this time point, cells were harvested with a Packard Filter-Mate-96 cell harvester (Perkin Elmer, Waltham, Mass., USA) and counted on Packard Top Count-NXT (Perkin Elmer, Waltham, Mass., USA). Results were expressed as average counts per minute (cpm). In some experiments CCRF-CEM cells were pre-treated with TLR1-TLR2 ligand (Pam3CysK4; 2.5 ug/ml) for 48 hrs, washed, and then cultured in the presence of varying concentrations of FBS. Forty-eight hours later, proliferation (±SD) was determined by ^3H-thymidine incorporation. Alternatively, apoptosis was measured by flow cytometry after staining cells with Annexin-V (BD Pharmingen, San Diego, Calif., USA) and propidium iodide (Sigma). Cell number was counted under microscopy by staining cells with trypan blue. […]

For assay [2], the system named is stage IA cutaneous T-lymphoma. Particulars: topical cream containing 5% Imiquimod; cited from earlier work.
In assay [3] the test system is MO. Put plainly: Proliferation (3H-thymidine) of MO. Conditions: 3H-thymidine uptake, 72 h. The format is cell-based, human.
Description: as §1, with “In other experiments, protein lysate was collected using the Full Moon Biosystems (Sunnyvale, Calif., USA) buffer prior to protein examination by western blot or protein array.” left out
as §2, with “TLR ligands were diluted 2-fold. Cell lines (25-40×10^3/well) were cultured for 54 hours, whereas fresh patient-derived T-ALL cells (200×10^3/well) were cultured for 30 hours prior to adding [^3H]-thymidine for 18 hours.” left out, “In some experiments CCRF-CEM cells were pre-treated with TLR1-TLR2 ligand (Pam3CysK4; 2.5 ug/ml) for 48 hrs, washed, and then cultured in the presence of varying concentrations of FBS.” left out

Assay [4] deals with CEM-C7. Description: Proliferation (3H-thymidine) of CEM-C7. The format is cell-based, human. Conditions: 3H-thymidine uptake, 72 h.
Description: as §1
(§3) Cells were cultured in a 96-well plate (Corning Costar, Corning, N.Y., USA) with various concentrations of TLR ligands 1-9, starting at 10 μg/ml, in a final volume of 200 ul. TLR ligands were diluted 2-fold. Cell lines (25-40×10^3/well) were cultured for 54 hours, whereas fresh patient-derived T-ALL cells (200×10^3/well) were cultured for 30 hours prior to adding [^3H]-thymidine for 18 hours. After this time point, cells were harvested with a Packard Filter-Mate-96 cell harvester (Perkin Elmer, Waltham, Mass., USA) and counted on Packard Top Count-NXT (Perkin Elmer, Waltham, Mass., USA). Results were expressed as average counts per minute (cpm). In some experiments CCRF-CEM cells were pre-treated with TLR1-TLR2 ligand (Pam3CysK4; 2.5 ug/ml) for 48 hrs, washed, and then cultured in the presence of varying concentrations of FBS. Forty-eight hours later, proliferation (±SD) was determined by ^3H-thymidine incorporation. Alternatively, apoptosis was measured by flow cytometry after staining cells with Annexin-V (BD Pharmingen, San Diego, Calif., USA) and propidium iodide (Sigma). Cell number was counted under microscopy by staining cells with trypan blue.
(§4) The following TLR ligands were purchased from Invivogen (San Diego, Calif., USA): tripalmitoyl-S-(bis(palmitoyloxy)propyl)-Cys-Ser-(Lys)3-Lys (TLR1-2); Poly I:C (TLR3); ultrapure S. Minnesota Lipopolysaccharide (TLR4); S. typhimurium flagellin (TLR5); FSL-1 (TLR2/6); Imiquimod (TLR7); ssRNA40/Lyovec (TLR8); CpG-ODN 2006 (TLR9).

The test system of assay [5] is CCRF-CEM. Description: Proliferation (3H-thymidine) of CCRF-CEM. The format is cell-based, human. Conditions: 3H-thymidine uptake, 72 h.
Description: as §1, §3, §4

Assay [6] has as its system Hut-78. Put plainly: Proliferation (3H-thymidine) of Hut-78. The format is cell-based, human. Conditions: 3H-thymidine uptake, 72 h.
Description: as §1, with “In other experiments, protein lysate was collected using the Full Moon Biosystems (Sunnyvale, Calif., USA) buffer prior to protein examination by western blot or protein array.” left out
as §2, with “TLR ligands were diluted 2-fold. Cell lines (25-40×10^3/well) were cultured for 54 hours, whereas fresh patient-derived T-ALL cells (200×10^3/well) were cultured for 30 hours prior to adding [^3H]-thymidine for 18 hours.” left out, “In some experiments CCRF-CEM cells were pre-treated with TLR1-TLR2 ligand (Pam3CysK4; 2.5 ug/ml) for 48 hrs, washed, and then cultured in the presence of varying concentrations of FBS.” left out

For assay [7], the system named is HH. Put plainly: Proliferation (3H-thymidine) of HH. The format is cell-based, human. Particulars: 3H-thymidine uptake, 72 h.
Description: as §1, with “In other experiments, protein lysate was collected using the Full Moon Biosystems (Sunnyvale, Calif., USA) buffer prior to protein examination by western blot or protein array.” left out
as §2, with “TLR ligands were diluted 2-fold. Cell lines (25-40×10^3/well) were cultured for 54 hours, whereas fresh patient-derived T-ALL cells (200×10^3/well) were cultured for 30 hours prior to adding [^3H]-thymidine for 18 hours.” left out, “In some experiments CCRF-CEM cells were pre-treated with TLR1-TLR2 ligand (Pam3CysK4; 2.5 ug/ml) for 48 hrs, washed, and then cultured in the presence of varying concentrations of FBS.” left out

Assay [8] concerns Hut 102. Put plainly: Proliferation (3H-thymidine) of Hut 102. The format is cell-based, human. Particulars: 3H-thymidine uptake, 72 h.
Description: as §1, with “In other experiments, protein lysate was collected using the Full Moon Biosystems (Sunnyvale, Calif., USA) buffer prior to protein examination by western blot or protein array.” left out
as §2, with “TLR ligands were diluted 2-fold. Cell lines (25-40×10^3/well) were cultured for 54 hours, whereas fresh patient-derived T-ALL cells (200×10^3/well) were cultured for 30 hours prior to adding [^3H]-thymidine for 18 hours.” left out, “In some experiments CCRF-CEM cells were pre-treated with TLR1-TLR2 ligand (Pam3CysK4; 2.5 ug/ml) for 48 hrs, washed, and then cultured in the presence of varying concentrations of FBS.” left out

The test system of assay [9] is HSB-2. Put plainly: Proliferation (3H-thymidine) of HSB-2. The format is cell-based, human.
Description: as §1, §3, §4

Assay [10] deals with CEM-C2. Put plainly: Proliferation (3H-thymidine) of CEM-C2. The format is cell-based, human. Conditions: 3H-thymidine uptake, 72 h.
Description: as §1, §2

Assay [11] relates to Molt-4. Description: Proliferation (3H-thymidine) of Molt-4. Particulars: 3H-thymidine uptake, 72 h. The format is cell-based, human.
Description: as §1, with “In other experiments, protein lysate was collected using the Full Moon Biosystems (Sunnyvale, Calif., USA) buffer prior to protein examination by western blot or protein array.” left out
as §2, with “TLR ligands were diluted 2-fold. Cell lines (25-40×10^3/well) were cultured for 54 hours, whereas fresh patient-derived T-ALL cells (200×10^3/well) were cultured for 30 hours prior to adding [^3H]-thymidine for 18 hours.” left out, “In some experiments CCRF-CEM cells were pre-treated with TLR1-TLR2 ligand (Pam3CysK4; 2.5 ug/ml) for 48 hrs, washed, and then cultured in the presence of varying concentrations of FBS.” left out

The subject of assay [12] is Primary T-cells Non-Act. Put plainly: Proliferation (3H-thymidine) of non-activated primary T-cells. The format is cell-based, human. Conditions: 3H-thymidine uptake, 72 h.
Description: as §1, with “In other experiments, protein lysate was collected using the Full Moon Biosystems (Sunnyvale, Calif., USA) buffer prior to protein examination by western blot or protein array.” left out
as §2, with “TLR ligands were diluted 2-fold. Cell lines (25-40×10^3/well) were cultured for 54 hours, whereas fresh patient-derived T-ALL cells (200×10^3/well) were cultured for 30 hours prior to adding [^3H]-thymidine for 18 hours.” left out, “In some experiments CCRF-CEM cells were pre-treated with TLR1-TLR2 ligand (Pam3CysK4; 2.5 ug/ml) for 48 hrs, washed, and then cultured in the presence of varying concentrations of FBS.” left out

In assay [13] the test system is H9. Put plainly: Proliferation (3H-thymidine) of H9. The format is cell-based, human. Conditions: H9; 3H-thymidine uptake, 72 h.
Description: as §1, §3, §4

The test system of assay [14] is Loucy. Put plainly: Proliferation (3H-thymidine) of Loucy. The format is cell-based, human. Particulars: 3H-thymidine uptake, 72 h.
Description: as §1, §2

Assay [15] deals with Primary T-cells Activated. Put plainly: Proliferation (3H-thymidine) of activated primary T-cells. The format is cell-based, human. Particulars: Primary T-cells, Activated.
Description: as §1, §3, §4

Assay [16] deals with SupT1. Description: Proliferation (3H-thymidine) of SupT1. The format is cell-based, human. Conditions: SupT1.
Description: as §1, §3, §4

Assay [17] concerns Jurkat. Description: Proliferation (3H-thymidine) of Jurkat. The format is cell-based, human.
Description: as §1, §2

On to `CC(C)Cn1cnc2c(N)nc3ccccc3c21` [Imiquimod], for which the “Proliferative effects of TLR ligands” value in assay [1], in assay [3], in assay [4], in [5], in assay [6] and in assay [7] was “∘” in each case. The “Proliferative effects of TLR ligands” value in assay [8] is reported as “∘”; in assay [9] (3H-thymidine uptake, 72 h) it was “− (reduced proliferation)”; in [10], “∘”; in assay [11], “∘”; in [12], “∘”; in assay [13], “∘”. Besides, the “Proliferative effects of TLR ligands” value in assay [14] is “∘”; in assay [15] (3H-thymidine uptake, 72 h), “− (reduced proliferation)”; in [16] (3H-thymidine uptake, 72 h), “− (reduced proliferation)”; in [17] (3H-thymidine uptake, 72 h), “− (reduced proliferation)”. For the same compound, the treatment outcome in assay [2] was “successfully treated”. For the same compound, the “TLR ligand concentration in parentheses below the symbol” value is “(1.2)” in assay [9] (no unit in table (μg/ml)), “(5)” in assay [15] (no unit in table (μg/ml)), “(0.6)” in assay [16] (no unit in table (μg/ml)) and “(10)” in assay [17] (no unit in table (μg/ml)).

The values are drawn from patent US9464326B2, “Total and phosphorylated IL-1 receptor-associated kinase-1 and IL-1 receptor-associated kinase-4 as a biomarker for cancer progression and chemotherapy resistance” (University of Maryland, Baltimore, priority 2012, dated 2016).
